Data as given in PMC5218480 (PLoS ONE, 2017).

Tested on: MV-4-11 cells
Assay: Gene expression microarray analysis (Affymetrix PrimeView) and GSEA
Assay type: cell-based, human
Set-up: RFU PODN (11730768_x_at) / Fold change /veh PODN (11730768_x_at) / RFU LINC00158 (11744669_a_at) / Fold change /veh LINC00158 (11744669_a_at) / RFU DUSP10 (11751237_a_at) / Fold change /veh DUSP10 (11751237_a_at) / RFU ID3 (11757404_x_at) / Fold change /veh ID3 (11757404_x_at) / RFU PLEKHG5 (11737974_s_at) / Fold change /veh PLEKHG5 (11737974_s_at) / RFU LRRC4B (11730491_at) / Fold change /veh LRRC4B (11730491_at) / RFU GIMAP4 (11747438_a_at) / Fold change /veh GIMAP4 (11747438_a_at) / RFU KRT8 (11758183_x_at) / Fold change /veh KRT8 (11758183_x_at) / RFU CNN1 (11734310_a_at) / Fold change /veh CNN1 (11734310_a_at) / RFU VPS37D (11726825_at) / Fold change /veh VPS37D (11726825_at) / RFU C10orf10 (11716522_x_at) / Fold change /veh C10orf10 (11716522_x_at) / RFU KIR2DL2 /// KIR2DL4 /// KIR2DL5A /// KIR2DL5B /// KIR2DS1 /// KIR2DS2 /// KIR2DS3 /// KIR2DS4 /// KIR3DL3 /// KIR3DL3 /// KIR3DS1 (11738374_at) / Fold change /veh KIR2DL2 /// KIR2DL4 /// KIR2DL5A /// KIR2DL5B /// KIR2DS1 /// KIR2DS2 /// KIR2DS3 /// KIR2DS4 /// KIR3DL3 /// KIR3DL3 /// KIR3DS1 (11738374_at) / RFU C1QL1 (11718748_at) / Fold change /veh C1QL1 (11718748_at) / RFU TMPRSS4 (11747572_a_at) / Fold change /veh TMPRSS4 (11747572_a_at) / RFU HAMP (11756126_x_at) / Fold change /veh HAMP (11756126_x_at) / RFU RNFT2 (11725882_a_at) / Fold change /veh RNFT2 (11725882_a_at) / RFU NR4A2 (11747474_a_at) / Fold change /veh NR4A2 (11747474_a_at) / RFU ABCC12 (11746883_a_at) / Fold change /veh ABCC12 (11746883_a_at) / RFU TMEM136 (11760407_x_at) / Fold change /veh TMEM136 (11760407_x_at) / RFU CLDN22 /// WWC2 (11732394_at) / Fold change /veh CLDN22 /// WWC2 (11732394_at) / RFU HLA-DPB1 (11760878_x_at) / Fold change /veh HLA-DPB1 (11760878_x_at) / RFU SPINT1 (11716480_a_at) / Fold change /veh SPINT1 (11716480_a_at) / RFU GAP43 (11754022_s_at) / Fold change /veh GAP43 (11754022_s_at) / RFU A4GNT (11735810_at) / Fold change /veh A4GNT (11735810_at) / RFU PRB3 (11715151_x_at) / Fold change /veh PRB3 (11715151_x_at) / RFU TUBB4B (11761932_at) / Fold change /veh TUBB4B (11761932_at) / RFU CAPN14 (11732068_a_at) / Fold change /veh CAPN14 (11732068_a_at) / RFU TMCC2 (11721928_a_at) / Fold change /veh TMCC2 (11721928_a_at) / RFU IRGQ (11745062_a_at) / Fold change /veh IRGQ (11745062_a_at) / RFU FAM174B (11720279_a_at) / Fold change /veh FAM174B (11720279_a_at) / RFU TMPRSS4 (11748680_a_at) / Fold change /veh TMPRSS4 (11748680_a_at) / RFU FAM212B (11763350_a_at) / Fold change /veh FAM212B (11763350_a_at) / RFU PLEKHG5 (11743358_a_at) / Fold change /veh PLEKHG5 (11743358_a_at) / RFU ZSCAN30 (11745921_a_at) / Fold change /veh ZSCAN30 (11745921_a_at) / RFU CMKLR1 (11741424_a_at) / Fold change /veh CMKLR1 (11741424_a_at) / RFU LOC101060620 /// MAPK8IP1 (11723275_at) / Fold change /veh LOC101060620 /// MAPK8IP1 (11723275_at) / RFU SPTSSB (11747773_x_at) / Fold change /veh SPTSSB (11747773_x_at) / RFU PRSS12 (11739890_at) / Fold change /veh PRSS12 (11739890_at) / RFU BIN1 (11741810_x_at) / Fold change /veh BIN1 (11741810_x_at) / RFU WNT11 (11732464_a_at) / Fold change /veh WNT11 (11732464_a_at) / RFU C10orf10 (11716521_a_at) / Fold change /veh C10orf10 (11716521_a_at) / RFU C5orf56 (11738089_at) / Fold change /veh C5orf56 (11738089_at) / RFU CYB561 (11721691_x_at) / Fold change /veh CYB561 (11721691_x_at) / RFU ANKRD19P (11752326_a_at) / Fold change /veh ANKRD19P (11752326_a_at) / RFU OR2T12 /// OR2T33 /// OR2T8 (11738714_s_at) / Fold change /veh OR2T12 /// OR2T33 /// OR2T8 (11738714_s_at) / RFU VCAN (11748164_a_at) / Fold change /veh VCAN (11748164_a_at) / RFU JSRP1 (11732532_at) / Fold change /veh JSRP1 (11732532_at) / RFU KRTAP10-11 (11738290_x_at) / Fold change /veh KRTAP10-11 (11738290_x_at) / RFU MYO3A (11730013_a_at) / Fold change /veh MYO3A (11730013_a_at) / RFU EBF3 (11725865_a_at) / Fold change /veh EBF3 (11725865_a_at) / RFU CAMK2N1 (11719241_x_at) / Fold change /veh CAMK2N1 (11719241_x_at) / RFU C5orf56 (11738088_a_at) / Fold change /veh C5orf56 (11738088_a_at) / RFU OLFML3 (11715873_a_at) / Fold change /veh OLFML3 (11715873_a_at) / RFU LOC100653217 /// NTM (11731650_a_at) / Fold change /veh LOC100653217 /// NTM (11731650_a_at) / RFU MAPK11 (11762145_a_at) / Fold change /veh MAPK11 (11762145_a_at) / RFU FIZ1 (11724087_x_at) / Fold change /veh FIZ1 (11724087_x_at) / RFU OASL (11726364_x_at) / Fold change /veh OASL (11726364_x_at) / RFU SOX15 (11748057_x_at) / Fold change /veh SOX15 (11748057_x_at) / RFU CD79A (11719716_a_at) / Fold change /veh CD79A (11719716_a_at) / RFU HIST1H1D (11736915_at) / Fold change /veh HIST1H1D (11736915_at) / RFU CASKIN2 (11723855_a_at) / Fold change /veh CASKIN2 (11723855_a_at) / RFU LOC730098 (11760151_x_at) / Fold change /veh LOC730098 (11760151_x_at) / RFU OR4N2 (11742367_at) / Fold change /veh OR4N2 (11742367_at) / RFU PRRT2 (11749266_a_at) / Fold change /veh PRRT2 (11749266_a_at) / RFU SNX32 (11753110_a_at) / Fold change /veh SNX32 (11753110_a_at) / RFU CDHR5 (11726645_a_at) / Fold change /veh CDHR5 (11726645_a_at) / RFU RCAN1 (11760418_a_at) / Fold change /veh RCAN1 (11760418_a_at) / RFU FAM167A (11723789_a_at) / Fold change /veh FAM167A (11723789_a_at) / RFU FAM26E (11764081_at) / Fold change /veh FAM26E (11764081_at) / RFU ISYNA1 (11749810_s_at) / Fold change /veh ISYNA1 (11749810_s_at) / RFU ACY1 (11761880_at) / Fold change /veh ACY1 (11761880_at) / RFU 11764098_at / Fold change /veh 11764098_at / RFU SAMD14 (11745864_x_at) / Fold change /veh SAMD14 (11745864_x_at) / RFU NPB (11741838_a_at) / Fold change /veh NPB (11741838_a_at) / RFU TMPRSS6 (11731388_a_at) / Fold change /veh TMPRSS6 (11731388_a_at) / RFU KRTAP10-2 (11738614_at) / Fold change /veh KRTAP10-2 (11738614_at) / RFU ARHGAP8 /// PRR5-ARHGAP8 (11727945_x_at) / Fold change /veh ARHGAP8 /// PRR5-ARHGAP8 (11727945_x_at) / RFU KRTAP5-7 /// NADSYN1 (11734609_at) / Fold change /veh KRTAP5-7 /// NADSYN1 (11734609_at) / RFU RASL12 (11751679_a_at) / Fold change /veh RASL12 (11751679_a_at) / RFU CDKN2B (11736163_a_at) / Fold change /veh CDKN2B (11736163_a_at) / RFU PRF1 (11729649_at) / Fold change /veh PRF1 (11729649_at) / RFU, ZNF638 /// ZNF638-IT1 / Fold change vs veh, ZNF638 /// ZNF638-IT1 / RFU, PANK3 / Fold change vs veh, PANK3 / RFU, SH3YL1 / Fold change vs veh, SH3YL1 / RFU, ZEB2 / Fold change vs veh, ZEB2 / RFU, NRIP1 / Fold change vs veh, NRIP1 / RFU, PTTG1IP / Fold change vs veh, PTTG1IP / RFU, CAPN2 / Fold change vs veh, CAPN2 / RFU, MED14 / Fold change vs veh, MED14 / RFU, SNORA58 / Fold change vs veh, SNORA58 / RFU, C1orf63 / Fold change vs veh, C1orf63 / RFU, LRRFIP1 / Fold change vs veh, LRRFIP1 / RFU, NDUFAF7 / Fold change vs veh, NDUFAF7 / RFU, SLC12A2 / Fold change vs veh, SLC12A2 / RFU, IBTK / Fold change vs veh, IBTK / RFU, ESF1 / Fold change vs veh, ESF1 / Fold change vs veh, TMEM50B / RFU, TAOK1 / Fold change vs veh, TAOK1 / RFU, ACBD3 / Fold change vs veh, ACBD3 / RFU, TMA16 / Fold change vs veh, TMA16 / RFU, RWDD3 / Fold change vs veh, RWDD3 / RFU, BCAT1 / Fold change vs veh, BCAT1 / RFU, EDEM3 / Fold change vs veh, EDEM3 / RFU, TMEM33 / Fold change vs veh, TMEM33 / RFU, WDR75 / Fold change vs veh, WDR75 / RFU, AHCTF1 / Fold change vs veh, AHCTF1 / RFU, TFRC / Fold change vs veh, TFRC / RFU, ZDHHC17 / Fold change vs veh, ZDHHC17 / RFU, NOM1 / Fold change vs veh, NOM1 / RFU, ARL8B / Fold change vs veh, ARL8B / RFU, ZBTB11 / Fold change vs veh, ZBTB11 / RFU, TAMM41 / Fold change vs veh, TAMM41 / RFU, KIAA1704 /// LOC100996395 / Fold change vs veh, KIAA1704 /// LOC100996395 / RFU, ING1 / Fold change vs veh, ING1 / RFU, TRMT61B / Fold change vs veh, TRMT61B / RFU, FUBP3 / Fold change vs veh, FUBP3 / RFU, TP53 / Fold change vs veh, TP53 / RFU, TNKS2 / Fold change vs veh, TNKS2 / RFU, ZFP14 / Fold change vs veh, ZFP14 / RFU, ACTR2 / Fold change vs veh, ACTR2 / RFU, PPP3R1 / Fold change vs veh, PPP3R1 / RFU, PIK3R1 / Fold change vs veh, PIK3R1 / RFU, HNRNPA1 / Fold change vs veh, HNRNPA1 / RFU, RNF170 / Fold change vs veh, RNF170 / RFU, ZNF28 / Fold change vs veh, ZNF28 / RFU, RNGTT / Fold change vs veh, RNGTT / RFU, OGT / Fold change vs veh, OGT / RFU, BRD1 / Fold change vs veh, BRD1 / RFU, MARS / Fold change vs veh, MARS / RFU, ZNF655 / Fold change vs veh, ZNF655 / RFU, FAHD1 / Fold change vs veh, FAHD1 / RFU, BDP1 / Fold change vs veh, BDP1 / RFU, LRRCC1 / Fold change vs veh, LRRCC1 / RFU, ARID1A / Fold change vs veh, ARID1A / RFU, ZNF146 / Fold change vs veh, ZNF146 / RFU, ZNF330 / Fold change vs veh, ZNF330 / RFU, GPN3 / Fold change vs veh, GPN3 / RFU, C9orf123 / Fold change vs veh, C9orf123 / RFU, N4BP2L2 / Fold change vs veh, N4BP2L2 / RFU, ARFIP1 / Fold change vs veh, ARFIP1 / RFU, FAM179B / Fold change vs veh, FAM179B / RFU, BCL10 / Fold change vs veh, BCL10 / RFU, UHRF1BP1L / Fold change vs veh, UHRF1BP1L / RFU, BET1 / Fold change vs veh, BET1 / RFU, CNOT2 / Fold change vs veh, CNOT2 / RFU, ZNF268 / Fold change vs veh, ZNF268 / Fold change vs veh, ZNF507 / RFU, DGCR2 / Fold change vs veh, DGCR2 / RFU, WDSUB1 / Fold change vs veh, WDSUB1 / Fold change vs veh, HSP90B1 /// MIR3652 / RFU, ADSS / Fold change vs veh, ADSS / RFU, GK / Fold change vs veh, GK / RFU, ZNF148 / Fold change vs veh, ZNF148 / RFU, TAF9 / Fold change vs veh, TAF9 / RFU, SLC1A5 / Fold change vs veh, SLC1A5 / RFU, SLMO2 / Fold change vs veh, SLMO2 / RFU, ABCC4 / Fold change vs veh, ABCC4 / RFU, LOC101060439 /// RAP1B / Fold change vs veh, LOC101060439 /// RAP1B / RFU, RFX7 / Fold change vs veh, RFX7 / RFU, GTPBP10 / Fold change vs veh, GTPBP10 / RFU, CNEP1R1 / Fold change vs veh, CNEP1R1 / RFU, BIVM-ERCC5 /// ERCC5 / Fold change vs veh, BIVM-ERCC5 /// ERCC5 / RFU, ILF3 / Fold change vs veh, ILF3 / RFU 11762660_at / Fold change /veh 11762660_at / RFU VCAN (11757783_s_at) / Fold change /veh VCAN (11757783_s_at) / RFU DDX43 (11728927_at) / Fold change /veh DDX43 (11728927_at) / RFU KRT8 (11758188_x_at) / Fold change /veh KRT8 (11758188_x_at) / RFU NKD1 (11759106_at) / Fold change /veh NKD1 (11759106_at) / RFU SRD5A1 (11742802_a_at) / Fold change /veh SRD5A1 (11742802_a_at) / RFU TPSAB1 /// TPSB2 (11721975_s_at) / Fold change /veh TPSAB1 /// TPSB2 (11721975_s_at) / RFU GSTM3 (11746129_a_at) / Fold change /veh GSTM3 (11746129_a_at) / RFU IL23R (11737362_x_at) / Fold change /veh IL23R (11737362_x_at) / RFU TMEM51 (11727254_a_at) / Fold change /veh TMEM51 (11727254_a_at) / RFU PIWIL2 (11732686_x_at) / Fold change /veh PIWIL2 (11732686_x_at) / RFU ORM1 (11744905_x_at) / Fold change /veh ORM1 (11744905_x_at) / RFU CCDC152 (11743942_at) / Fold change /veh CCDC152 (11743942_at) / RFU ECM1 (11717891_a_at) / Fold change /veh ECM1 (11717891_a_at) / RFU IL23R (11748794_a_at) / Fold change /veh IL23R (11748794_a_at) / RFU TNFAIP8L3 (11732012_x_at) / Fold change /veh TNFAIP8L3 (11732012_x_at) / RFU MBOAT4 (11741988_at) / Fold change /veh MBOAT4 (11741988_at) / RFU 11764193_at / Fold change /veh 11764193_at / RFU TMEM53 (11763286_at) / Fold change /veh TMEM53 (11763286_at) / RFU MAGEB2 (11727129_at) / Fold change /veh MAGEB2 (11727129_at) / RFU TMEM200A (11744735_a_at) / Fold change /veh TMEM200A (11744735_a_at) / RFU CCDC152 (11751479_a_at) / Fold change /veh CCDC152 (11751479_a_at) / RFU FAM211A (11726209_a_at) / Fold change /veh FAM211A (11726209_a_at) / RFU RGS16 (11746705_a_at) / Fold change /veh RGS16 (11746705_a_at) / RFU VCAN (11755009_s_at) / Fold change /veh VCAN (11755009_s_at) / RFU RHOB (11743442_s_at) / Fold change /veh RHOB (11743442_s_at) / RFU RGS16 (11720943_a_at) / Fold change /veh RGS16 (11720943_a_at) / RFU RGS16 (11720944_at) / Fold change /veh RGS16 (11720944_at) / RFU, VPS4B / Fold change vs veh, VPS4B / RFU, CREB1 / Fold change vs veh, CREB1 / RFU, DNAJC13 / Fold change vs veh, DNAJC13 / RFU, GNAQ / Fold change vs veh, GNAQ / RFU, CDK5R1 / Fold change vs veh, CDK5R1 / RFU, ZRANB3 / Fold change vs veh, ZRANB3 / RFU, CUL4A / Fold change vs veh, CUL4A / RFU, CCNY / Fold change vs veh, CCNY / RFU, UFL1 / Fold change vs veh, UFL1 / RFU, COG3 / Fold change vs veh, COG3 / RFU, DIAPH2 / Fold change vs veh, DIAPH2 / RFU, SKA2 / Fold change vs veh, SKA2 / RFU, AFF3 / Fold change vs veh, AFF3 / RFU, LMF1 / Fold change vs veh, LMF1 / RFU, IPO11 / Fold change vs veh, IPO11 / RFU, DFFB / Fold change vs veh, DFFB / RFU, FOXP1 / Fold change vs veh, FOXP1 / RFU, CARD8 / Fold change vs veh, CARD8 / RFU, STRN3 / Fold change vs veh, STRN3 / RFU, ADK / Fold change vs veh, ADK / RFU, RASSF2 / Fold change vs veh, RASSF2 / RFU, WIPF1 / Fold change vs veh, WIPF1 / RFU, LARP1B / Fold change vs veh, LARP1B / RFU, RASA1 / Fold change vs veh, RASA1 / RFU, RB1 / Fold change vs veh, RB1 / RFU, PPFIA1 / Fold change vs veh, PPFIA1 / RFU, MAT2A / Fold change vs veh, MAT2A / RFU, CCT5 / Fold change vs veh, CCT5 / RFU, WDR92 / Fold change vs veh, WDR92 / RFU, CUX1 / Fold change vs veh, CUX1 / RFU, TTC7A / Fold change vs veh, TTC7A / RFU, TMEM135 / Fold change vs veh, TMEM135 / RFU, DEPTOR / Fold change vs veh, DEPTOR / RFU, CPM / Fold change vs veh, CPM / RFU, DNAJB6 / Fold change vs veh, DNAJB6 / RFU, CACNA2D3 / Fold change vs veh, CACNA2D3 / RFU, DTX4 / Fold change vs veh, DTX4 / RFU, TFCP2 / Fold change vs veh, TFCP2 / RFU, GMCL1 /// GMCL1P1 / Fold change vs veh, GMCL1 /// GMCL1P1 / RFU, AEBP2 / Fold change vs veh, AEBP2 / RFU, SNHG1 /// SNORD22 /// SNORD25 /// SNORD26 /// SNORD27 /// SNORD28 /// SNORD29 /// SNORD31 / Fold change vs veh, SNHG1 /// SNORD22 /// SNORD25 /// SNORD26 /// SNORD27 /// SNORD28 /// SNORD29 /// SNORD31 / Fold change (Aza/veh), C12orf56 (ProbeSet 11735607_a_at) / Fold change (ACY-1035/veh), C12orf56 (ProbeSet 11735607_a_at) / Fold change (Aza/veh), FGFR1OP (ProbeSet 11751329_s_at) / Fold change (ACY-1035/veh), FGFR1OP (ProbeSet 11751329_s_at) / Fold change (Aza/veh), VPS36 (ProbeSet 11739960_a_at) / Fold change (ACY-1035/veh), VPS36 (ProbeSet 11739960_a_at) / RFU SYPL1 (11715823_x_at) / Fold change /veh SYPL1 (11715823_x_at) / RFU IGFBP7 (11715501_s_at) / Fold change /veh IGFBP7 (11715501_s_at) / RFU REEP3 (11722064_at) / Fold change /veh REEP3 (11722064_at) / RFU IGLL1 (11728026_x_at) / Fold change /veh IGLL1 (11728026_x_at): dose or concentration left out as unconfirmed
Conditions: MV-4-11 cells, 48 hours

SMILES: Nc1ccc(-c2cccs2)cc1NC(=O)c1ccc2c(c1)cc(C1CC1)n2CCN1CCOCC1 [ACY-1035]
- RFU OASL (11726364_x_at): 41.33 RFU
